Among the test systems are SK-MEL-2 melanoma; KM12 colon; EKVX NSCLC; COLO 205 colon; BT-549 breast; UO-31 renal; HCC-2998 colon; MOLT-4 leukemia; HOP-92 NSCLC; HT29 colon.
Holding throughout (assay): DTP human tumour cell line panel, 48 h

GI50 and TGI data for eight compounds are collected here from PubChem BioAssay (NCI).

SMILES strings stand for the structures. Several values for one entry are separate records, joined by “and”; a condition that tells them apart may be missing. Equal values may be shown once.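 All cell lines were grown in 96-well plates and treated with compound for 48 hours. Here, GI50 denotes the concentration required for 50% inhibition of growth. TGI marks complete inhibition of growth.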 A value given as a limit tells only on which side of the number the result lay.

For `c1ccc2cc(C[n+]3ccn(Cc4ccc5ccccc5n4)c3)ccc2c1`, the GI50 was 381 nM and 2440 nM with SK-MEL-2 melanoma; 384 nM and 2250 nM in the test with KM12 colon; 239 nM and 1720 nM in the test with COLO 205 colon; 347 nM and 2540 nM in the test with BT-549 breast; 10600 nM and 35800 nM with UO-31 renal; 389 nM and 2650 nM with HCC-2998 colon. For the same compound, the GI50 with MOLT-4 leukemia is 488 nM and 3190 nM; with HOP-92 NSCLC it was 184 nM and 1660 nM; in the test with HT29 colon, 366 nM and 2550 nM. Besides, the TGI with SK-MEL-2 melanoma is 1800 nM and 8980 nM; in the test on KM12 colon, 1740 nM and 7560 nM; with EKVX NSCLC it was 7340 nM and 31400 nM; in the test on COLO 205 colon it was 738 nM and 5070 nM; with BT-549 breast, 1510 nM and 8460 nM; in the test on UO-31 renal, 25400 nM and > 100000 nM. The TGI in the test on HCC-2998 colon was 3760 nM and 12700 nM; in the test with MOLT-4 leukemia, 5040 nM and 14700 nM; in the test with HT29 colon, 3010 nM and 14300 nM.
For the compound `COc1ccc(/C=N\NC(=O)c2ccc3nc(-c4ccc(Cl)cc4)[nH]c3c2)cc1`, the GI50 in the test on SK-MEL-2 melanoma was 3590 nM; in the test on KM12 colon it was 3030 nM; with EKVX NSCLC, 2110 nM; in the test on COLO 205 colon, 1940 nM; in the test on BT-549 breast, 3360 nM; in the test with UO-31 renal, 1860 nM. The GI50 with HCC-2998 colon was 2570 nM; in the test on MOLT-4 leukemia, 4530 nM; with HOP-92 NSCLC, 1520 nM; with HT29 colon, 3090 nM. Also, the TGI in the test on SK-MEL-2 melanoma amounted to 13800 nM; with KM12 colon, 9580 nM; with EKVX NSCLC, 5840 nM; in the test with COLO 205 colon, 5430 nM; with BT-549 breast it was 16400 nM; in the test on UO-31 renal, 6380 nM. The TGI was 6440 nM in the test with HCC-2998 colon, 30400 nM in the test on MOLT-4 leukemia, 4110 nM in the test with HOP-92 NSCLC and 22100 nM in the test on HT29 colon.
`CN1CCN(c2ccc3nc(-c4[nH]ncc4Nc4ncnc5c4OCCCN5)[nH]c3c2)CC1`: the GI50 in the test with SK-MEL-2 melanoma was 12.4 nM; in the test with KM12 colon, < 10.5 nM; in the test on EKVX NSCLC, 16.8 nM; in the test with COLO 205 colon, < 10 nM; in the test on BT-549 breast, 10.8 nM; in the test on UO-31 renal, 17.9 nM. Moreover, the GI50 in the test with HCC-2998 colon is 15.9 nM; in the test on MOLT-4 leukemia, < 10 nM; in the test with HOP-92 NSCLC it was < 10.7 nM; with HT29 colon it was < 12.6 nM. The TGI with SK-MEL-2 melanoma came to 46.8 nM; in the test with KM12 colon, 109 nM; with EKVX NSCLC, 183 nM; in the test with COLO 205 colon, 15.7 nM; in the test on BT-549 breast, 38.4 nM; in the test with UO-31 renal it was 57.8 nM. The TGI came to 76.2 nM in the test on HCC-2998 colon, 315 nM in the test on MOLT-4 leukemia, 42.9 nM in the test with HOP-92 NSCLC and 100 nM with HT29 colon.
As to `CN(C)c1ccc(Nc2c3ccccc3nc3cc(NC(=O)CCN4CCCC4)ccc23)cc1`, the GI50 was 1750 nM with SK-MEL-2 melanoma; 497 nM with KM12 colon; 964 nM in the test on EKVX NSCLC; 309 nM with COLO 205 colon; 1300 nM with BT-549 breast; 595 nM in the test on UO-31 renal. The GI50 was 627 nM with HCC-2998 colon, 42 nM in the test with MOLT-4 leukemia, 379 nM in the test with HOP-92 NSCLC and 475 nM with HT29 colon. In addition, the TGI with SK-MEL-2 melanoma is 3330 nM; in the test on KM12 colon, 1880 nM; with EKVX NSCLC, 2620 nM; in the test on COLO 205 colon, 1760 nM; in the test with BT-549 breast, 2730 nM; in the test with UO-31 renal, 1920 nM. Moreover, the TGI in the test with HCC-2998 colon amounted to 2260 nM; with MOLT-4 leukemia it was 1070 nM; with HOP-92 NSCLC it was 2140 nM; with HT29 colon it was 2060 nM.
As to `CC#CC#C/C=C1\C=CC2(OC=CC2OC(C)=O)O1` (stereo not drawn), the GI50 with SK-MEL-2 melanoma was 90200 nM and 28900 nM; in the test with MOLT-4 leukemia it was 6900 nM and 17800 nM. Moreover, the TGI in the test with SK-MEL-2 melanoma was > 100000 nM; in the test with KM12 colon it was 63700 nM and 54800 nM; with EKVX NSCLC, > 100000 nM; in the test with COLO 205 colon, 28200 nM and 33300 nM; in the test with BT-549 breast, > 100000 nM; with UO-31 renal, 30800 nM and 36200 nM. Also, the TGI in the test with HCC-2998 colon was 69900 nM and 45900 nM; in the test on MOLT-4 leukemia, 64600 nM and 53200 nM; in the test on HOP-92 NSCLC, 51600 nM and 44100 nM; in the test on HT29 colon, 34800 nM and 55900 nM.
For the compound `COC1C(CO)OC(n2c3c(Cl)cccc3c3c4c(c5c6cccc(Cl)c6[nH]c5c32)C(=O)NC4=O)C(O)C1O` (stereo not drawn), the TGI is > 26300 nM in the test on SK-MEL-2 melanoma; > 58600 nM in the test with KM12 colon; > 100000 nM with EKVX NSCLC; 61400 nM in the test on COLO 205 colon; 12400 nM in the test on BT-549 breast; 2600 nM in the test with UO-31 renal. Moreover, the TGI in the test on HCC-2998 colon was > 20000 nM; in the test with MOLT-4 leukemia, > 100000 nM; with HOP-92 NSCLC it was 4880 nM; with HT29 colon, > 47300 nM.
As to `O=C(Nc1ccc(Oc2ccc(NC(=O)Nc3ccc([N+](=O)[O-])cc3)cc2)cc1)Nc1ccc([N+](=O)[O-])cc1`, the GI50 in the test with SK-MEL-2 melanoma is 2030 nM; in the test on KM12 colon it was 1530 nM; in the test with EKVX NSCLC, 2320 nM; in the test with COLO 205 colon it was 1630 nM; in the test on BT-549 breast, 2060 nM; in the test with UO-31 renal it was 516 nM. The values for the GI50 in the test with HCC-2998 colon, in the test on MOLT-4 leukemia and in the test on HT29 colon were 2280 nM, 1190 nM and 2000 nM, respectively. Also, the TGI with SK-MEL-2 melanoma was 4290 nM; in the test with KM12 colon it was > 29700 nM; in the test on EKVX NSCLC, > 30900 nM; with COLO 205 colon, 3220 nM; in the test on BT-549 breast, 7360 nM; with UO-31 renal, > 26400 nM. For the same compound, the TGI came to 8020 nM with HCC-2998 colon, 4800 nM in the test on MOLT-4 leukemia, 2070 nM in the test with HOP-92 NSCLC and 15900 nM with HT29 colon.
As for `COc1ccc2c(c1)[nH]c(=O)c1c3cc(OC)c(OC)cc3cn21`, the GI50 is 30.3 nM with SK-MEL-2 melanoma; < 10 nM in the test with KM12 colon; 31.2 nM in the test with EKVX NSCLC; < 10 nM with COLO 205 colon; < 24 nM in the test on BT-549 breast; < 10 nM in the test with UO-31 renal. The GI50 in the test on HCC-2998 colon was < 10 nM; with MOLT-4 leukemia, < 15.9 nM; in the test with HOP-92 NSCLC it was 27.2 nM; in the test on HT29 colon, < 10 nM. Moreover, the TGI in the test on SK-MEL-2 melanoma is 20800 nM; in the test with KM12 colon, 292 nM; with EKVX NSCLC, 18900 nM; in the test with COLO 205 colon, 63.5 nM; in the test with BT-549 breast it was 861 nM; in the test with UO-31 renal, 17400 nM. In addition, the TGI stood at 76.8 nM with HCC-2998 colon, 1160 nM in the test on MOLT-4 leukemia and 17400 nM with HOP-92 NSCLC.
